Reference: patent publication US20160374944A1, “COMPOSITIONS AND METHODS FOR TREATING AND PREVENTING CANCER BY TARGETING AND INHIBITING CANCER STEM CELLS” (priority 2011, published 2016)

Experiments:
[1] = test system: Pancreatic CSCs; assay: apoptosis; type: cell-based, human
Experimental: (A and B) Induction of apoptosis and activation of caspase-3/-7. Pancreatic CSCs were treated with rottlerin (0-2 μM) for 48 h, and apoptosis and caspase-3/-7 activity were measured by […] and colorometric assay, respectively. […] (C) Pancreatic CSCs were treated with rottlerin (0-1 μM) for 48 h, and the expression of Bcl-2, XIAP and Survivin was measured by qRT-PCR and normalized to GAPDH.
(A) Pancreatic CSCs were treated with SAHA (3 and 5 μM) and 5-Aza-dc (2 and 4 μM) and cell viability was measured at 48 h by staining with trypan blue using Vi-CELL analyzer (Beckman Counter). (B) Pancreatic CSCs were untreated (a) or treated with SAHA (b) or 5-Aza-dC (c) for 48 h, and apoptosis was measured by staining with annexin-PI using Accuri Flow Cytometer. (C) Caspase-3/7 activity was measured in pancreatic CSCs treated with SAHA (0.5 and 2 μM) or 5-Aza-dC (1 and 3 μM) for 25 h.
(A) Regulation of caspase-3/7 activity by EGCG. CSCs were treated with EGCG (0-60 μM) for 24 h, and caspase-3/7 activity was measured as per manufacturer's instructions. […] (B) Regulation of apoptosis by EGCG. CSCs were treated with EGCG (0-60 μM) for 48 h, and apoptosis was measured by TUNEL assay. […] (C) Regulation of apoptosis-related proteins. Pancreatic CSCs were treated with EGCG (0-60 μM) for 36 h. Real time PCR (q-RT-PCR) was performed to examine the expression of Bcl-2, survivin, XIAP, and GAPDH.
FIG. 42A and FIG. 42B show graphs showing quercetin synergizes with EGCG to inhibit self-renewal capacity, invasion, migration, and TCF/LEF and Gli transcriptional activities in pancreatic CSCs. (A) Effects of EGCG and quercetin on spheroid and colony formation. Upper Panel, uercetin synergizes with EGCG to inhibit spheroid's cell viability. CSCs were seeded in suspension and treated with EGCG (0-60 μM) with or without quercetin (20 μM) for 7 days. At the end of incubation period, all the spheroids were collected and resuspended. Cell viability was measured by trypan blue assay. […] Lower panel, uercetin synergizes with EGCG to inhibit colony formation. Pancreatic CSCs were seeded in soft agar and treated with various doses of EGCG (0-60 μM) with or without quercetin (20 μM) and incubated at […] for 21 days. At the end of incubation period, colonies were counted. […] (B) Effects of EGCG and quercetin on invasion and migration. Upper panel, Matrigel invasion assay. CSCs were plated onto the Matrigel-coated membrane in the top chamber of the transwell and treated with EGCG (0-60 μM) with or without quercetin (20 μM) for 48 hrs. Cells invaded to the lower chambered were fixed with methanol, stained with crystal violet and counted. […] Lower panel, Transwell migration assay. Pancreatic CSCs were plated in the top chamber of the transwell and treated with EGCG (0-60 μM) with or without quercetin (20 μM) for 48 hrs. Cells migrated to the lower chambered were fixed with methanol, stained with crystal violet and counted. […] (C) Quercetin synergizes with EGCG to induce apoptosis. CSCs were seeded in suspension and treated with EGCG (0-60 μM) with or without quercetin (20 μM) for 7 days. At the end of incubation period, all the spheroids were collected. Apoptosis was measured by TUNEL assay. […] (D) Effects of EGCG and quercetin on TCF/LEF and Gli transcriptional activities. Pancreatic CSCs were transduced with either lentivirus encoding TCF/LEF responsive GFP and luciferase genes or Gli-responsive GFP and luciferase genes. Transduced CSCs were treated with EGCG (40 μM) with or without quercetin (20 μM) for 48 hrs and the luciferase activity was measured.
Pancreatic CSCs were (a) untreated, (b) treated with SAHA, or (c) treated with 5-Aza-dC for 48 hours and apoptosis was measured by staining with annexin-PI using Accuri Flow Cytometer. The results of those studies are illustrated in FIG. 31B.

[2] = test system: Brain CSCs; assay: cell viability, trypan blue, Vi-CELL analyzer; type: cell-based; details: 48 h
Experimental: Brain CSCs were treated with resveratrol (0-20 μM), curcumin (0-20 μM), honokiol (0-20 μM) and diallyl trisulphide (0-10 μM) for 3 days, and cell viability was measured by staining with trypan blue using Vi-CELL analyzer (Beckman Counter).
Brain CSCs were treated with sulforaphane (0-20 μM), rottlerin (0-1 μM), EGCG (0-40 μM) and embelin (0-5 μM) for 48 h, and cell viability was measured by staining with trypan blue using Vi-CELL analyzer (Beckman Counter).
Brain CSCs were treated with resveratrol (0-20 μM), curcumin (0-20 μM) honokiol (0-20 μM), and diallyl trisulphide (0-10 μM) for 3 days and cell viability was measured by staining with trypan blue using Vi-CELL analyzer. The results of those studies are illustrated in FIG. 23.
Brain CSCs were treated with sulforaphane (0-20 μM), rottlerin (0-1 μM), EGCG (0-40 μM), and embelin (0-5 μM) for 48 hours and cell viability was measured by staining with trypan blue using Vi-CELL analyzer. The results of those studies are illustrated in FIG. 24.

[3] = test system: Breast CSCs; assay: cell viability by XTT assay; type: cell-based; details: 3 days
Experimental: Breast CSCs were seeded in 96-well plate and treated with sulforaphane, diallyl trisulphide, resveratrol and curcumin for 3 days. At the end of incubation period, CSCs were harvested and cell viability was measured by XTT assay.
Breast CSCs were seeded in 96-well plate and treated with rottlerin, EGCG, embelin, and honokiol for 3 days. At the end of incubation period, breast CSCs were harvested and cell viability was measured by XTT assay.
(A-D) Breast CSCs were treated with PITC (0-20 μM), BSC, (0-20 μM), sulforaphane (0-20 μM) and honokiol (0-10 μM) for 3 days, and cell viability was measured by XTT assay.
Breast CSCs were treated with rottlerin (0-1 μM) for 3 days, and cell viability was measured by XTT assay.
Breast CSCs were seeded in 96-well plate and treated with sulforaphane, diallyl trisulphide, resveratrol, and curcumin for 3 days and cell viability was measured by XTT assay. The results of those studies are illustrated in FIG. 29.
Breast CSCs were seeded in 96-well plate and treated with Rottlerin, EGCG, embelin, and honokiol for 3 days and cell viability was measured by XTT assay. The results of those studies are illustrated in FIG. 30.

[4] = EGCG 0-60 μM with or without quercetin 20 μM, 7 days, spheroids, TUNEL assay

Row | SMILES | apoptosis [1, 4] | apoptosis ([1]; EGCG 0-60 μM, 48 h, TUNEL assay) | cell viability [2] | cell viability [3] | apoptosis ([1]; rottlerin 0-2 μM, 48 h)
1 | O=C(O[C@@H]1Cc2c(O)cc(O)cc2O[C@@H]1c1cc(O)c(O)c(O)c1)c1cc(O)c(O)c(O)c1 [EGCG, epigallocatechin gallate] | induced apoptosis | induced caspase-3/7 activity and apoptosis in pancreatic CSCs in a dose-dependent manner | inhibit cell viability | inhibit cell viability | –
2 | O=c1c(O)c(-c2ccc(O)c(O)c2)oc2cc(O)cc(O)c12 [quercetin] | induced apoptosis | – | – | – | –
3 | CC(=O)c1c(O)c(C)c(O)c(Cc2c(O)c3c(c(C(=O)/C=C/c4ccccc4)c2O)OC(C)(C)C=C3)c1O [rottlerin] | – | – | inhibit cell viability | inhibits cell viability | induced
4 | C[S+]([O-])CCCCN=C=S (stereo not shown) [sulforaphane] | – | – | inhibit cell viability | inhibit cell viability | –
